This note sets out measurements from patent publication US8343983B2, “Substituted pyrazolo-pyrimidine compounds” (ArQule, Inc., priority 2009, dated 2013).

Read-outs that look alike come from different tables or passages of the source. Where only a bound is given, the exact number is not on record here.

This assay concerns cancer cells. In words: MTS assay: inhibition of cell growth (formazan absorbance at 492 nm after 72 hours with test compound). The assay is classed as cell-based. The settings on record: inhibition class. A digest of the protocol: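 DMEM with 1% FBS; cells seeded at 3000/well and grown 18 h at 37 °C, then exposed to compound for 72 h and to MTS/PMS for 4 h. IC50 is the concentration giving a 50% absorbance drop; grades are % inhibition bands.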

Where [1] appears, read: Homo sapiens, DLD-1 cells, read-out: DLD-1, MTS 72 hours at 10 uM.
[2] abbreviates: Homo sapiens, KATO III cells, read-out: KATO III, MTS 72 hours at 10 uM.
[3] abbreviates: Homo sapiens, MDA-MB-231 cells, read-out: MDA-MB-231, MTS 72 hours at 10 uM.
Where [4] appears, read: Homo sapiens, NCI-H1299 cells, read-out: NCI-H1299, MTS 72 hours at 10 uM.
Setting [5] is: Homo sapiens, PC-3 cells, read-out: PC-3, MTS 72 hours at 10 uM.
Where [6] appears, read: PACA-2 cells, read-out: PACA-2, MTS 72 hours at 10 uM.

Take `COc1ccc(CN2CCCc3n[nH]c4nc(N5CCN(Cc6ccccc6)CC5)nc2c34)cc1` [Compound 254, 4-(4-benzylpiperazin-1-yl)-6-(4-methoxybenzyl)-6,7,8,9-tetrahydro-2H-1,2,3,5,6-pentaazabenzo[cd]azulene]: the inhibition at 10 µM by setting is: under setting [1], greater than 79%; under setting [2], greater than 79%; under setting [3], greater than 79%; under setting [4], greater than 79%; under setting [5], greater than 79%; under setting [6], greater than 79%.
Regarding `c1ccc(CN2CCc3n[nH]c4nc(NCc5cccnc5)nc2c34)cc1` [Compound 10, 6-benzyl-N-(pyridin-3-ylmethyl)-2,6,7,8-tetrahydro-1,2,3,5,6-pentaazaacenaphthylen-4-amine], the inhibition at 10 µM was less than 50% under setting [1]; less than 50% under setting [2]; less than 50% under setting [3]; less than 50% under setting [4]; less than 50% under setting [5]; less than 50% under setting [6].
As for `c1ccc(CN2CCc3n[nH]c4nc(N5CCN(c6ncccn6)CC5)nc2c34)cc1` [Compound 13, 6-benzyl-4-(4-pyrimidin-2-ylpiperazin-1-yl)-2,6,7,8-tetrahydro-1,2,3,5,6-pentaazaacenaphthylene], the inhibition at 10 µM under setting [1] was less than 50%; the inhibition at 10 µM under setting [2] was less than 50%; the inhibition at 10 µM under setting [3] was less than 50%; the inhibition at 10 µM under setting [4] was less than 50%; the inhibition at 10 µM under setting [5] is less than 50%; the inhibition at 10 µM under setting [6] was less than 50%.
As to `COc1ccc(CCNc2nc3c4c(n[nH]c4n2)CCN3Cc2ccccc2)cc1` [Compound 32, 6-benzyl-N-[2-(4-methoxyphenyl)ethyl]-2,6,7,8-tetrahydro-1,2,3,5,6-pentaazaacenaphthylen-4-amine], the inhibition at 10 µM by setting is: under setting [1], greater than 79%; under setting [2], greater than 79%; under setting [3], greater than 79%; under setting [4], greater than 79%; under setting [5], greater than 79%; under setting [6], greater than 79%.
For the molecule `Clc1cccc(Oc2ccccc2)c1CNc1nc2c3c(n[nH]c3n1)CCN2Cc1ccccc1` [Compound 16, 6-benzyl-N-(2-chloro-6-phenoxybenzyl)-2,6,7,8-tetrahydro-1,2,3,5,6-pentaazaacenaphthylen-4-amine], the inhibition at 10 µM is, setting by setting: under setting [1], less than 50%; under setting [2], less than 50%; under setting [3], less than 50%; under setting [4], 50 to 79%; under setting [5], 50 to 79%; under setting [6], less than 50%.
For `C1Cc2n[nH]c3nc(N4CCOCC4)nc(c23)N1` [Compound 125, 4-morpholin-4-yl-2,6,7,8-tetrahydro-1,2,3,5,6-pentaazaacenaphthylene], the inhibition at 10 µM runs as follows: under setting [1], less than 50%; under setting [2], less than 50%; under setting [3], less than 50%; under setting [4], less than 50%; under setting [5], less than 50%; under setting [6], less than 50%.
Consider `OCCN1CCN(c2nc3c4c(n[nH]c4n2)CCN3Cc2ccccc2)CC1` [Compound 75, 2-[4-(6-benzyl-2,6,7,8-tetrahydro-1,2,3,5,6-pentaazaacenaphthylen-4-yl)piperazin-1-yl]ethanol], for which the inhibition at 10 µM is less than 50% under setting [1]; less than 50% under setting [2]; less than 50% under setting [3]; less than 50% under setting [4]; less than 50% under setting [5]; less than 50% under setting [6].
Regarding `Cc1ccccc1CCNc1nc2c3c(n[nH]c3n1)CCN2Cc1ccccc1` [Compound 87, 6-benzyl-N-[2-(2-methylphenyl)ethyl]-2,6,7,8-tetrahydro-1,2,3,5,6-pentaazaacenaphthylen-4-amine], the inhibition at 10 µM is, setting by setting: under setting [1], less than 50%; under setting [2], less than 50%; under setting [3], less than 50%; under setting [4], 50 to 79%; under setting [5], less than 50%; under setting [6], less than 50%.
